Converted amounts (≈) assume the structure as drawn.
Tests used:
[1] = target: T1, Transient receptor potential cation channel subfamily M member 8 (Homo sapiens, UniProt Q7Z2W7); assay: Agonist activity at human TRPM8 expressed in HEK293 cells assessed as increase in intracellular calcium level after 15 mins by Fluo-3-AM dye-based fluorescence assay; format: cell-based
Target sequence in this assay (Q7Z2W7 whole entry): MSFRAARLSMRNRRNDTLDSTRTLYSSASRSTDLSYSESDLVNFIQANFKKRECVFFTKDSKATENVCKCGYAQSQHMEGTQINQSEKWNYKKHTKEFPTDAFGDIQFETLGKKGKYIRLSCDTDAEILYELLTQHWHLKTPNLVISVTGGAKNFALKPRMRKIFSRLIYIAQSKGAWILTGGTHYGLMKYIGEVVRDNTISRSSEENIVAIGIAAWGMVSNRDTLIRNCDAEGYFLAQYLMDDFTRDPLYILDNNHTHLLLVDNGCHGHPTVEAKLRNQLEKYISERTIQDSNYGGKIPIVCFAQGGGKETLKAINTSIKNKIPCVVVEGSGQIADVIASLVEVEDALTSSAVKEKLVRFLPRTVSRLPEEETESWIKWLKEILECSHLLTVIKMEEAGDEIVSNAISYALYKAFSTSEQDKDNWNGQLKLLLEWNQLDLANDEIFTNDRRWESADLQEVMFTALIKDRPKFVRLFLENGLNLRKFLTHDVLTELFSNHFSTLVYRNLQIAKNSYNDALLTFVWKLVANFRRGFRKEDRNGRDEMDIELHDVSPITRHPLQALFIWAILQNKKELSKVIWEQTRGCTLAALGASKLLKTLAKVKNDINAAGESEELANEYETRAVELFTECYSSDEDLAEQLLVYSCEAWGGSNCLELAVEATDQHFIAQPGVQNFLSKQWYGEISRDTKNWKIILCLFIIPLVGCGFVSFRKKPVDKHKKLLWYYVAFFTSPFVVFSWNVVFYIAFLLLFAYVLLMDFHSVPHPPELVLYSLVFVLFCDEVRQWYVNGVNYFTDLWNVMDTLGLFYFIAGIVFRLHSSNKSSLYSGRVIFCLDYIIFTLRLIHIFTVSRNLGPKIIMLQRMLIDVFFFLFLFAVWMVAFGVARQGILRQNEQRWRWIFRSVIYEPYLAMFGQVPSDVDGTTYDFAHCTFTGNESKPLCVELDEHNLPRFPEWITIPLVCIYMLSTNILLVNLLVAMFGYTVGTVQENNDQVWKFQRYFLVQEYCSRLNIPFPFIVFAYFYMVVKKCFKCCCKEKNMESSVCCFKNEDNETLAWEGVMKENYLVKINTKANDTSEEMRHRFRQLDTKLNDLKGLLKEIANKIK

[2] = target: T1, Transient receptor potential cation channel subfamily M member 8; assay: Potency index, ratio of WS-3 EC50 to compound EC50 for human TRPM8 receptor
Target sequence in this assay (Q7Z2W7 whole entry, looked up): as the sequence (Q7Z2W7 whole entry) above

[3] = Permeability of the compound assessed as drug transport by PAMPA; format: physicochemical
Homo sapiens = assay: In vivo agonist activity at human TRPM8 in trained human subjects assessed as concentration required to deliver cooling sensation equivalent to 45 uM WS-3 by measuring cooling intensity; format: functional
[4] = Thermodynamic solubility of the compound in pH 7.1 phosphoric buffer; format: physicochemical; details: read-out: Therm_solubility

Q: Which EC50 ([1]; read-out: EC50) does the source give for `CCN(Cc1cccs1)C(=O)COc1ccc(F)cc1` here?
A: 422 nM

Q: What about the Ratio EC50 [2] of the same molecule?
A: 10

Q: With `CCN(Cc1cccs1)C(=O)c1cc2cc(C)ccc2n1C` as the molecule, how does the EC50 ([1]; hek293) read?
A: Not Active

Q: With `CCN(Cc1cccs1)C(=O)c1cc2cc(OC)ccc2o1` as the molecule, how does the Drug transport [3] read?
A: 1%

Q: And the Activity (Homo sapiens)?
A: 5 µM

Q: And the EC50 ([1]; read-out: EC50)?
A: 80 nM

Q: And the Ratio EC50 [2]?
A: 164

Q: And the solubility thermodynamic [4]?
A: 49 µM (≈ 15.5 µg/mL)

Q: Which EC50 ([1]; read-out: EC50) does the source give for `CCN(Cc1cccs1)C(=O)C(C)Oc1ccc(C)cc1` (centres undefined) here?
A: 889 nM

Q: And the Ratio EC50 [2]?
A: 4

Q: For `Cc1ccc(OCC(=O)N(Cc2cccs2)c2nccn2C)cc1`, which EC50 ([1]; read-out: EC50) is on record?
A: 1790 nM

Q: And the Ratio EC50 [2]?
A: 3

Q: Which Activity (Homo sapiens) does the source give for `CCN(Cc1cccs1)C(=O)COc1ccc(OC)cc1` here?
A: 15 µM

Q: What about the EC50 ([1]; read-out: EC50) of the same molecule?
A: 120 nM

Q: And the Ratio EC50 [2]?
A: 32

Q: With `CCCN(Cc1cccs1)C(=O)COc1ccc(C)cc1` as the molecule, how does the Activity (Homo sapiens) read?
A: >5 µM

Q: And the EC50 ([1]; read-out: EC50)?
A: 40 nM

Q: What about the Ratio EC50 [2] of the same molecule?
A: 149

Q: Which Activity (Homo sapiens) does the source give for `COc1ccc2oc(C(=O)N(Cc3cccs3)c3ccn[nH]3)cc2c1` here?
A: 5 µM

Q: And the EC50 ([1]; read-out: EC50)?
A: 1.1 nM

Q: And the Ratio EC50 [2]?
A: 30900

Q: Which results are given for `CCN(Cc1cccs1)C(=O)c1cc2cc(C)ccc2o1`?
A: Drug transport [3]: 2%; Activity (Homo sapiens): 10 µM; EC50 ([1]; read-out: EC50): 120 nM; Ratio EC50 [2]: 42; solubility thermodynamic [4]: 27 µM (≈ 8.08 µg/mL)

Q: Which Activity (Homo sapiens) does the source give for `CCN(Cc1ccoc1)C(=O)COc1ccc(C)cc1` here?
A: 5 µM

Q: What about the EC50 ([1]; read-out: EC50) of the same molecule?
A: 136 nM

Q: And the Ratio EC50 [2]?
A: 32

Q: Which results are given for `CCN(Cc1cccs1)C(=O)COc1cc(C)ccc1O`?
A: Activity (Homo sapiens): 5 µM; EC50 ([1]; read-out: EC50): 24 nM; Ratio EC50 [2]: 180

Q: With `CCN(Cc1cccnc1)C(=O)COc1ccc(C)cc1` as the molecule, how does the EC50 ([1]; read-out: EC50) read?
A: 15400 nM

Q: What about the Ratio EC50 [2] of the same molecule?
A: 0.2

Q: What does the source list for `CCN(Cc1cccs1)C(=O)COc1ccc2c(c1)CCC2`?
A: Drug transport [3]: 3%; Activity (Homo sapiens): 3 µM; EC50 ([1]; read-out: EC50): 0.8 nM; Ratio EC50 [2]: 7680; solubility thermodynamic [4]: 85 µM (≈ 26.8 µg/mL)

Q: What does the source list for `Cc1ccc(OCC(=O)N(Cc2cccs2)c2ccn(C)n2)cc1`?
A: EC50 ([1]; read-out: EC50): 855 nM; Ratio EC50 [2]: 13

Q: For `CCN(Cc1cccs1)C(=O)COc1ccc(C)cc1O`, which Activity (Homo sapiens) is on record?
A: 3 µM

Q: What about the EC50 ([1]; read-out: EC50) of the same molecule?
A: 8 nM

Q: What about the Ratio EC50 [2] of the same molecule?
A: 650

Q: For `Cc1ccc(OCC(=O)N(Cc2cccs2)CC(C)C)cc1`, which EC50 ([1]; read-out: EC50) is on record?
A: 900 nM

Q: What about the Ratio EC50 [2] of the same molecule?
A: 3

Q: Which EC50 ([1]; read-out: EC50) does the source give for `Cc1ccc(OCC(=O)N(Cc2cccs2)c2ncccn2)cc1` here?
A: 3700 nM

Q: What about the Ratio EC50 [2] of the same molecule?
A: 1

Q: With `CCN(Cc1cccs1)C(=O)COc1ccc(C#N)cc1` as the molecule, how does the EC50 ([1]; read-out: EC50) read?
A: 1990 nM

Q: What about the Ratio EC50 [2] of the same molecule?
A: 2

Q: With `CCN(Cc1cccs1)C(=O)COc1ccc(C)cc1` as the molecule, how does the Drug transport [3] read?
A: 12%

Q: What about the Activity (Homo sapiens) of the same molecule?
A: 5 µM

Q: And the EC50 ([1]; read-out: EC50)?
A: 8 nM

Q: And the Ratio EC50 [2]?
A: 620

Q: What about the solubility thermodynamic [4] of the same molecule?
A: 545 µM (≈ 158 µg/mL)

Q: For `CCN(Cc1cn[nH]c1)C(=O)COc1ccc(C)cc1`, which EC50 ([1]; hek293) is on record?
A: Active

Q: For `CCN(Cc1cccs1)C(=O)COc1ccc(C(=O)O)cc1`, which EC50 ([1]; hek293) is on record?
A: Not Active

Q: With `CCN(Cc1cccs1)C(=O)COc1ccccc1C` as the molecule, how does the EC50 ([1]; read-out: EC50) read?
A: 192 nM

Q: What about the Ratio EC50 [2] of the same molecule?
A: 18

Q: With `CCc1ccc(OCC(=O)N(CC)Cc2cccs2)cc1` as the molecule, how does the Activity (Homo sapiens) read?
A: 5 µM

Q: What about the EC50 ([1]; read-out: EC50) of the same molecule?
A: 67 nM

Q: What about the Ratio EC50 [2] of the same molecule?
A: 66

Q: Which Activity (Homo sapiens) does the source give for `C=CCN(Cc1cccs1)C(=O)COc1ccc(C)cc1` here?
A: 5 µM

Q: And the EC50 ([1]; read-out: EC50)?
A: 20 nM

Q: And the Ratio EC50 [2]?
A: 365

Q: For `Cc1ccc(OCC(=O)N(Cc2cccs2)c2cnn(C)c2)cc1`, which EC50 ([1]; read-out: EC50) is on record?
A: 63000 nM

Q: And the Ratio EC50 [2]?
A: 0.1

Q: With `CCN(Cc1cncs1)C(=O)COc1ccc(C)cc1` as the molecule, how does the EC50 ([1]; read-out: EC50) read?
A: 1100 nM

Q: And the Ratio EC50 [2]?
A: 4

Q: For `COc1ccc(OCC(=O)N(Cc2cccs2)c2cc[nH]n2)cc1`, which EC50 ([1]; read-out: EC50) is on record?
A: 3.7 nM

Q: What does the source list for `Cc1ccc(OCC(=O)N(CCO)Cc2cccs2)cc1`?
A: EC50 ([1]; read-out: EC50): 900 nM; Ratio EC50 [2]: 5

Q: What does the source list for `CCN(Cc1cccs1)C(=O)CCc1ccc(C)cc1`?
A: Activity (Homo sapiens): >5 µM; EC50 ([1]; read-out: EC50): 93 nM; Ratio EC50 [2]: 40

Q: Which EC50 ([1]; read-out: EC50) does the source give for `CCN(Cc1cccs1)C(=O)C(C)(C)Oc1ccc(C)cc1` here?
A: 11000 nM

Q: What about the Ratio EC50 [2] of the same molecule?
A: 0.3

Q: Which Activity (Homo sapiens) does the source give for `CCN(Cc1ccsc1)C(=O)COc1ccc(C)cc1` here?
A: 5 µM

Q: What about the EC50 ([1]; read-out: EC50) of the same molecule?
A: 88 nM

Q: What about the Ratio EC50 [2] of the same molecule?
A: 49

Q: What does the source list for `CCN(Cc1cccs1)C(=O)COc1ccc(C(C)C)cc1`?
A: EC50 ([1]; read-out: EC50): 397 nM; Ratio EC50 [2]: 10

Q: What does the source list for `Cc1ccc(OCC(=O)N(Cc2cccs2)c2nccs2)cc1`?
A: EC50 ([1]; read-out: EC50): 2240 nM; Ratio EC50 [2]: 2

Q: For `CON(Cc1cccs1)C(=O)COc1ccc(C)cc1`, which EC50 ([1]; read-out: EC50) is on record?
A: 10 nM

Q: What about the Ratio EC50 [2] of the same molecule?
A: 317

Q: With `Cc1ccc(OCC(=O)N(Cc2cccs2)c2c(C)n[nH]c2C)cc1` as the molecule, how does the EC50 ([1]; read-out: EC50) read?
A: 0.3 nM

Q: What about the Ratio EC50 [2] of the same molecule?
A: 14700

Q: For `CCN(Cc1cccs1)C(=O)COc1cccc(C)c1`, which Activity (Homo sapiens) is on record?
A: 5 µM

Q: What about the EC50 ([1]; read-out: EC50) of the same molecule?
A: 97 nM

Q: What about the Ratio EC50 [2] of the same molecule?
A: 42

Q: What does the source list for `Cc1ccc(OCC(=O)N(Cc2cccs2)C2COC2)cc1`?
A: EC50 ([1]; read-out: EC50): 23000 nM; Ratio EC50 [2]: 0.3

Q: For `CCN(Cc1cccs1)C(=O)COc1ccc(Cl)cc1`, which EC50 ([1]; read-out: EC50) is on record?
A: 39 nM

Q: And the Ratio EC50 [2]?
A: 93

Q: For `CCN(Cc1ccncc1)C(=O)COc1ccc(C)cc1`, which EC50 ([1]; hek293) is on record?
A: Not Active

Q: Which EC50 ([1]; read-out: EC50) does the source give for `CCN(Cc1cccs1)C(=O)/C=C/c1ccc2c(c1)OCO2` here?
A: 0.7 nM

Q: And the Ratio EC50 [2]?
A: 6830

Q: Which Activity (Homo sapiens) does the source give for `Cc1ccc(OCC(=O)N(Cc2cccs2)c2cccnc2)cc1` here?
A: 15 µM

Q: And the EC50 ([1]; read-out: EC50)?
A: 198 nM

Q: What about the Ratio EC50 [2] of the same molecule?
A: 24

Q: With `CCN(C(=O)COc1ccc(C)cc1)C(C)c1cccs1` (centres undefined) as the molecule, how does the EC50 ([1]; hek293) read?
A: Not Active

Q: With `CCN(Cc1cccs1)C(=O)COc1ccc(CO)cc1` as the molecule, how does the EC50 ([1]; read-out: EC50) read?
A: 21900 nM

Q: What about the Ratio EC50 [2] of the same molecule?
A: 0.2

Source: ChEMBL document CHEMBL4052716, “Discovery and development of a novel class of phenoxyacetyl amides as highly potent TRPM8 agonists for use as cooling agents” (Bioorg Med Chem Lett, 2017)
